Results from patent US20080234355A1, “DNA METHYL TRANSFERASE INHIBITORS CONTAINING A ZINC BINDING MOIETY” (priority 2006, published 2008).

Assays:
HDAC = HDAC fluorimetric assay kit (AK-500, Biomol), HeLa nuclear extract; format: biochemical; conditions: Fluor de Lys substrate, 1 hour reaction, read-out: HDAC IC50 (grade)
Procedure: (a) An In Vitro Assay which Determines the Ability of a Test Compound to Inhibit HDAC Enzymatic Activity.
HDAC inhibitors were screened using an HDAC fluorimetric assay kit (AK-500, Biomol, Plymouth Meeting, Pa.). Test compounds were dissolved in dimethylsulphoxide (DMSO) to give a 20 mM working stock concentration. Fluorescence was measured on a WALLAC Victor 2 plate reader and reported as relative fluorescence units (RFU). Data were plotted using GraphPad Prism (v4.0a) and IC50's calculated using a sigmoidal dose response curve fitting algorithm.
Each assay was setup as follows: Defrosted all kit components and kept on ice until use. Diluted HeLa nuclear extract 1:29 in Assay Buffer (50 mM Tris/Cl, pH 8.0, 137 mM NaCl, 2.7 mM KCl, 1 mM MgCl2). Prepared dilutions of Trichostatin A (TSA, positive control) and tested compounds in assay buffer (5× of final concentration). Diluted Fluor de Lys™ Substrate in assay buffer to 100 uM (50 fold=2× final). Diluted Fluor de Lys™ developer concentrate 20-fold (e.g. 50 μl plus 950 μl Assay Buffer) in cold assay buffer. Second, diluted the 0.2 mM Trichostatin A 100-fold in the 1× Developer (e.g. 10 μl in 1 ml; final Trichostatin A concentration in the 1× Developer=2 μM; final concentration after addition to HDAC/Substrate reaction=1 μM). Added Assay buffer, diluted trichostatin A or test inhibitor to appropriate wells of the microtiter plate. Added diluted HeLa extract or other HDAC sample to all wells except for negative controls. Allowed diluted Fluor de Lys™ Substrate and the samples in the microtiter plate to equilibrate to assay temperature (e.g. 25 or 37° C. Initiated HDAC reactions by adding diluted substrate (25 μl) to each well and mixing thoroughly. Allowed HDAC reactions to proceed for 1 hour and then stopped them by addition of Fluor de Lys™ Developer (50 μl). Incubated plate at room temperature (25° C.) for 10-15 min. Read samples in a microtiter-plate reading fluorimeter capable of excitation at a wavelength in the range 350-380 nm and detection of emitted light in the range 440-460 nm.

[1] = test system: gelatinase A (MMP2; Type IV collagenase); conditions: 3T3 cells; cited from earlier work
[2] = test system: ER mRNA expression in human ER-negative breast cancer cell lines; conditions: cited from earlier work

| SMILES | IC50 (HDAC) [µM] | also measured |
| --- | --- | --- |
| CCN(CCNC(=O)c1ccc(N)cc1)C(=O)CCC(=O)NO [Compound 34, N^1-(2-(4-aminobenzamido)ethyl)-N^1-ethyl-N^4-hydroxysuccinamide] | > 10 |  |
| Nc1ccc(C(=O)NCCNCCC(=O)CCC(=O)NO)cc1 [Compound 28] | > 10 |  |
| CC(/C=C/C(=O)NO)=C\[C@@H](C)C(=O)c1ccc(N(C)C)cc1 [TSA, trichostatin A] |  | mRNA as well as zymographic activity of gelatinase A (MMP2) [1]: decreases; increase in ER mRNA expression [2]: 5 fold |
| Nc1ccc(C(=O)NCCNC(=O)CCCC(=O)NO)cc1 [Compound 29, N-hydroxy-4-(2-(4-aminobenzamido)-ethylcarbamoyl)butanamide] | 0.1 to 1 | melting point: 158.9 to 159.8 °C |
| CCN(CCNC(=O)c1ccc(N)cc1)C(=O)CCCCC(=O)NO [Compound 36, N^1-(2-(4-aminobenzamido)ethyl)-N^1-ethyl-N^6-hydroxyadipamide] | 1 to 10 |  |
| Nc1ccc(C(=O)NCCNC(=O)CCCCC(=O)NO)cc1 [Compound 30] | 1 to 10 |  |
| Nc1ccc(C(=O)NCCNCCC(=O)NO)cc1 [Compound 25] | > 10 |  |
